Legend:
[1] = Physical stability of crystal forms (temperature, humidity, phase equilibration); format: physicochemical
[2] = Hygroscopicity / water adsorption of crystal forms; format: physicochemical; settings: dihydrochloride
infants with PPHN = settings: cited from earlier work

C[C@H](O)[C@H](O)[C@H]1CNc2nc(N)[nH]c(=O)c2N1.Cl.Cl [Polymorph A, (6R)-L-erythro-tetrahydrobiopterin dihydrochloride]
phase equilibration tests of suspensions ([1]; tetrahydrofuran or tertiary-butyl methyl ether, stirred five days and 18 hours respectively, nitrogen, room temperature, filtration and air-drying): unchanged polymorph form A | adsorbs water to a content of [2]: about 3 percent by weight

C[C@H](O)[C@H](O)[C@H]1CNc2nc(N)[nH]c(=O)c2N1.Cl.Cl [Polymorph B, (6R)-L-erythro-tetrahydrobiopterin dihydrochloride]
stability of the crystal form ([1]; dihydrochloride): highest thermodynamic stability above about 20 °C

C[C@H](O)[C@H](O)[C@H]1CNc2nc(N)[nH]c(=O)c2N1.Cl.Cl [Polymorph F, (6R)-L-erythro-tetrahydrobiopterin dihydrochloride]
adsorbs water to a content of [2]: about 3 percent by weight

C[C@H](O)[C@H](O)[C@H]1CNc2nc(N)[nH]c(=O)c2N1.Cl.Cl [Polymorph K, (6R)-L-erythro-tetrahydrobiopterin dihydrochloride]
adsorbs water to a content of [2]: about 2.0 percent by weight

Nc1ncnc2c1ncn2[C@@H]1O[C@H](COP(=O)(O)OP(=O)(O)OP(=O)(O)O)[C@@H](O)[C@H]1O [adenosine triphosphate]
infants with a response (infants with PPHN): 5 out of 6

C[C@H](O)[C@H](O)[C@H]1CNc2nc(N)[nH]c(=O)c2N1.Cl.Cl [hydrate form D, (6R)-L-erythro-tetrahydrobiopterin dihydrochloride]
relative humidity at which the form is stable ([1]; ambient temperatures, dihydrochloride): less than 70%

C[C@H](O)[C@H](O)[C@H]1CNc2nc(N)[nH]c(=O)c2N1.Cl.Cl [polymorph J, (6R)-L-erythro-tetrahydrobiopterin dihydrochloride]
relative humidity at which it is transformed back into form E [1]: above 75%

c1ccc(CC2=NCCN2)cc1 [tolazoline]
response rate (infants with PPHN): 60%
